Measured values taken from ChEMBL document CHEMBL4699449, “Adenosine A Receptor Antagonists for Cancer Immunotherapy” (J Med Chem, 2020).

Experiments:
Adenosine receptor A2a [1] = molecular target: T1, Adenosine receptor A2a (Homo sapiens, UniProt P29274); assay: Antagonist activity at human adenosine 2A receptor expressed in HEK293 cells assessed as reduction in NECA-induced cAMP level incubated for 15 mins by HTRF assay; assay type: functional, cell-based
[2] = Half life in mouse at 2 mg/kg, iv or 10 mg/kg, po measured up to 24 hrs by LC-MS/MS analysis; assay type: ADME, organism-based; details: in vivo
[3] = Cmax in mouse at 1 mg/kg, iv measured up to 24 hrs by LC-MS/MS analysis; assay type: ADME, organism-based; design: route intravenous, dose 1 mg/kg, time <=24; details: in vivo
Adenosine receptor A2a [4] = molecular target: T1, Adenosine receptor A2a; assay: Antagonist activity at human adenosine 2A receptor expressed in T-REx-CHO cells preincubated for 1 hr followed by NECA stimulation and measured after 30 mins by Eu-cAMP tracer based TR-FRET assay; assay type: functional, cell-based; details: filed as antagonist, time 1.5 hrs
[5] = molecular target: T2, Adenosine receptor A2b (Homo sapiens) (UniProt P29275); assay: Antagonist activity at human adenosine 2B receptor expressed in CHO-K1 cells preincubated for 1 hr followed by NECA stimulation and measured after 30 mins by Eu-cAMP tracer based TR-FRET assay; assay type: functional, cell-based; details: filed as antagonist, time 1.5 hrs
T2 sequence (whole entry): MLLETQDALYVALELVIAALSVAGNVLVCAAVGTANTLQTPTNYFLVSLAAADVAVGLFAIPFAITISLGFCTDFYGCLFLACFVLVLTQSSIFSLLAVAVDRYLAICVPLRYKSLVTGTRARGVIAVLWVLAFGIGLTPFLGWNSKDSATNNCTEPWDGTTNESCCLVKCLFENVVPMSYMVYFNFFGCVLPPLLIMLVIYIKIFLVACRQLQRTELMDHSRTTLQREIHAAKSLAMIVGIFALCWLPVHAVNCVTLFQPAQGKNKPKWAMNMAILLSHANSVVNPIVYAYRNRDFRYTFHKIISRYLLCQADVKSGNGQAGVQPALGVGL

Adenosine receptor A2a [6] = molecular target: T1, Adenosine receptor A2a; assay: Antagonist activity at adenosine 2A receptor in human PBMC assessed as reversal of NECA/CD3/CD28-stimulated IL-2 release incubated for 24 hrs
Adenosine receptor A2a [7] = molecular target: T1, Adenosine receptor A2a; assay: Antagonist activity at adenosine 2A receptor in human blood assessed as reversal of NECA/LPS-stimulated TNF-alpha release incubated for 5 hrs; assay type: tissue-based
Homo sapiens [8] = species on record: Homo sapiens; assay: Selectivity ratio of IC50 for human adenosine 2B receptor expressed in HEK293 cells to IC50 for human adenosine 2A receptor expressed in HEK293 cells; assay type: cell-based
Homo sapiens [9] = species on record: Homo sapiens; assay: Selectivity ratio of IC50 for human adenosine A1 receptor expressed in CHO cells to IC50 for human adenosine 2A receptor expressed in HEK293 cells; assay type: cell-based
Homo sapiens [10] = species on record: Homo sapiens; assay: Selectivity ratio of IC50 for human adenosine A3 receptor expressed in CHO cells to IC50 for human adenosine 2A receptor expressed in HEK293 cells; assay type: cell-based
Adenosine receptor A1 = molecular target: T3, Adenosine receptor A1 (Homo sapiens, UniProt P30542); assay: Antagonist activity at human adenosine A1 receptor expressed in CHO cells by radioligand competition binding assay; assay type: cell-based
T3 sequence (P30542 whole entry): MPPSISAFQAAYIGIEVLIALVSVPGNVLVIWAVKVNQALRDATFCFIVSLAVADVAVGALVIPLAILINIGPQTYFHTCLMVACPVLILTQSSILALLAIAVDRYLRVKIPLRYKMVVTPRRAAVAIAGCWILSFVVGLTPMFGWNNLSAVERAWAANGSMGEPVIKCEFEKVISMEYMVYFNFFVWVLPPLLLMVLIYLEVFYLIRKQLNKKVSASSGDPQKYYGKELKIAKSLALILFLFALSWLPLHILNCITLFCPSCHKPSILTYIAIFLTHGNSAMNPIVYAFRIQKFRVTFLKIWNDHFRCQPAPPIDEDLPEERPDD

Adenosine receptor A2b = molecular target: T4, Adenosine receptor A2b (Homo sapiens, UniProt P29275); assay: Antagonist activity at human adenosine A2b receptor expressed in HEK293 cells by radioligand competition binding assay; assay type: cell-based
T4 sequence (P29275 whole entry): T2 sequence (whole entry)

Adenosine receptor A3 = molecular target: T5, Adenosine receptor A3 (Homo sapiens, UniProt P0DMS8); assay: Antagonist activity at human adenosine A3 receptor expressed in HeLa cells by radioligand competition binding assay; assay type: cell-based
T5 sequence (P0DMS8 whole entry): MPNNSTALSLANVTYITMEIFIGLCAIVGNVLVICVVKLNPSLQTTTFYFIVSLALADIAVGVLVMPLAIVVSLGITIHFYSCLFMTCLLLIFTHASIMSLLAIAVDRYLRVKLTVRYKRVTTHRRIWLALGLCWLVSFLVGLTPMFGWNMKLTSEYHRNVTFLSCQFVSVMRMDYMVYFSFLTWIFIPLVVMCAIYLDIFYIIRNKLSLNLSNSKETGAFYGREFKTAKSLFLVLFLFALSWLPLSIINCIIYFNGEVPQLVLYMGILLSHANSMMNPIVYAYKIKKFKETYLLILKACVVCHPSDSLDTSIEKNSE

Adenosine receptor A2a [11] = molecular target: T1, Adenosine receptor A2a; assay: Antagonist activity at human adenosine 2A receptor expressed in HEK293 cells assessed as reduction in cAMP production preincubated for 10 mins followed by 3 nM A2A agonist NECA addition and measured after 30 mins by EU-cAMP tracer based TR-FRET assay; assay type: functional, cell-based
Adenosine receptor A2a [12] = molecular target: T1, Adenosine receptor A2a; assay: Antagonist activity at human adenosine 2A receptor expressed in HEK293 cells assessed as reduction in cAMP production preincubated for 10 mins followed by 5 nM A2A agonist NECA addition and measured after 30 mins by EU-cAMP tracer based TR-FRET assay; assay type: functional, cell-based
Adenosine receptor A2a [13] = molecular target: T1, Adenosine receptor A2a; assay: Antagonist activity at human adenosine 2A receptor expressed in HEK293 cells assessed as reduction in cAMP production preincubated for 10 mins followed by adenosine addition and measured after 30 mins by EU-cAMP tracer based TR-FRET assay; assay type: functional, cell-based
Adenosine receptor A2a [14] = molecular target: T1, Adenosine receptor A2a; assay: Antagonist activity at adenosine 2A receptor in human peripheral blood lymphocytes assessed as reduction in NECA-stimulated CREB phosphorylation by flow cytometric analysis; assay type: functional, cell-based, PBL

T1 sequence (P29274 whole entry): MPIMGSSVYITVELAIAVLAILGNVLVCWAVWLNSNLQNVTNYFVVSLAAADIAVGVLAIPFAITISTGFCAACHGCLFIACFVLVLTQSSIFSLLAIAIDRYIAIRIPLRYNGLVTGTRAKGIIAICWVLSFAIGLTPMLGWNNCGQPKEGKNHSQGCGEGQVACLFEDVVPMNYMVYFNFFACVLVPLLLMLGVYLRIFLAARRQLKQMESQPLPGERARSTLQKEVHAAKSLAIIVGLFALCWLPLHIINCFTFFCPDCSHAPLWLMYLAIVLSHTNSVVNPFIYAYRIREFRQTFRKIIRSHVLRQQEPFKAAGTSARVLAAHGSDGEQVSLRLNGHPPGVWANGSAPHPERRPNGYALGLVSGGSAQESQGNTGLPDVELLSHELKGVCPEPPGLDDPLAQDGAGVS

| SMILES | IC50 (Adenosine receptor A2a [1]) | half-life [2] | Cmax [3] | further results |
| --- | --- | --- | --- | --- |
| COc1ccc(-c2ccccc2)c2ncc(NC(=O)N3CCC(C)(O)CC3)nc12 | < 100 nM | > 120 min |  |  |
| COCCn1cc(C(=O)Nc2nc3c(OC)ncc(N4CCOCC4)c3s2)cn1 | < 10 nM | 49 min | 1390 ng/mL |  |
| COc1cccc2c(-c3cn(Cc4cccc(C(C)(O)C(F)(F)F)[n+]4[O-])nn3)nc(N)nc12 (stereo unspecified) |  |  |  | Kb (Adenosine receptor A2a [4]): < 100 nM; Kb [5]: < 100 nM |
| Cc1cccnc1CNC(=O)c1c(N)nc(-c2ccco2)nc1OC[C@H](C)O |  |  |  | IC50 (Adenosine receptor A2a [6]): 77 nM; IC50 (Adenosine receptor A2a [7]): > 200 nM |
| Nc1nc(-n2cccn2)nc(-n2cccn2)c1Br [PBF-509] |  |  |  | Ki (Adenosine receptor A1): 2500 nM; Ki (Adenosine receptor A2b): 1000 nM; Ki (Adenosine receptor A3): 5000 nM |
| COc1ncc(-c2ccccc2)c2ncc(NC(=O)N3CCC(C)(O)CC3)nc12 | < 100 nM |  |  |  |
| NC(=O)Cc1cc(N2CCN(CCn3c(=O)sc4c3nc(N)n3nc(-c5ccco5)nc43)CC2)c(F)cc1F |  |  |  | IC50 (Adenosine receptor A2a [11]): 0.5 nM; IC50 (Adenosine receptor A2a [12]): 2 nM; IC50 (Adenosine receptor A2a [13]): 49 nM; IC50 (Adenosine receptor A2a [14]): 20 nM |
| COc1ccc(C2CCOCC2)c2ncc(NC(=O)N3CCC(C)(O)CC3)nc12 |  | 55.2 min |  |  |
| COCCn1cc(C(=O)Nc2cnc3c(C4CCOCC4)ccc(OC)c3n2)cn1 |  | 20.3 min | 1220 ng/mL |  |

The next lines start with results.

| IC50 (Adenosine receptor A2a [1]) | half-life [2] | Cmax [3] | SMILES | further results |
| --- | --- | --- | --- | --- |
|  | 19.9 min |  | COCCn1cc(C(=O)Nc2nc3c(OC)ccc(N4CCOCC4)c3s2)cn1 |  |
| < 10 nM | 69 min | 2100 ng/mL | COc1ccc(N2CCOCC2)c2nc(NC(=O)c3cccc(N4CCOCC4)c3)[nH]c12 | Ratio IC50 (Homo sapiens [8]): 1000; Ratio IC50 (Homo sapiens [9]): 1000; Ratio IC50 (Homo sapiens [10]): 1000 |
|  | 66.6 min | 1440 ng/mL | COc1ccc(-c2cnn(C)c2)c2nc(NC(=O)N3CC[C@@]4(CCCOC4)C3)[nH]c12 |  |
|  | 103 min | 733 ng/mL | COc1ncc(N2CCOCC2)c2nc(NC(=O)c3cnn(C)c3)[nH]c12 |  |
